Where “and” joins values, the source holds several entries; their conditions need not be identical. Equal entries are not always repeated. Where two headings read alike, the source gives them in different places. Where no end group is shown, it is not given here.
What was measured:
[1] = test system: LPS-induced microglia activation; assay: Image-based assay of LPS-induced microglia activation (HTS and dose response); format: cell-based, rat; settings: for inhibition at 10 µM: Rattus norvegicus, Microglia, read-out: LPS % inhibition
primary rat microglia [2] = test system: primary rat microglia
[3] = test system: fibrin-induced microglia activation; assay: Image-based assay of fibrin-induced microglia activation (HTS and dose response); format: cell-based, rat; settings: for inhibition at 10 µM: Rattus norvegicus, Microglia, read-out: Fibrin % inhibition
[4] = test system: fibrin- and LPS-induced microglia activation; assay: cells; format: cell-based, rat; settings: for Hit: HTS hit classification
primary rat microglia [5] = assay: Cell toxicity (dead cells, size <150 μm2) in coated fibrin (cFib) assay; settings: for Fibrin % cell toxicity: primary microglia HTS; for IC50: read-out: Cell Toxicity IC50 (uM) [cFib assay];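 as to Fibrin % cell toxicity: share of dead cells sized under 150 µm2 at 10 µM in fibrin-stimulated microglia HTS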
primary rat microglia [6] = assay: Cell toxicity (dead cells, size <150 μm2) in LPS assay; settings: for LPS % cell toxicity: primary microglia HTS; for IC50: read-out: Cell Toxicity IC50 (uM) [LPS assay]
primary rat microglia [7] = settings: rat
[8] = primary microglia HTS, LPS stimulation, increased cell size (>800 μm^2) as marker of activation
[9] = primary microglia HTS, fibrin stimulation, increased cell size (>800 μm^2) as marker of activation
[10] = primary microglia HTS, LPS stimulation, compounds at 10 μM, 10 µM
[11] = classification by fibrin and LPS inhibition, HTS at 10 μM
[12] = 48 h, primary microglia HTS, LPS stimulation, increased cell size (>800 μm^2) as marker of activation
[13] = primary microglia HTS, LPS stimulation, compounds at 10 μM
[14] = quadrant by fibrin and LPS inhibition in HTS of 1907 compounds
[15] = fibrin stimulation, decreased size (<150 μm^2) as marker of toxicity
[16] = primary microglia HTS, fibrin stimulation, compounds at 10 μM
[17] = LPS stimulation, decreased size (<150 μm^2) as marker of toxicity
[18] = Table 1, dose response 0.001-20 μM, triplicates, primary rat microglia, 48 h, read-out: LPS IC50
[19] = dose response, LPS-induced microglia activation, read-out: LPS IC50
[20] = HTS of 1907 compounds, quadrant by fibrin and LPS inhibition
[21] = Table 1, dose response 0.001-20 μM, triplicates, primary rat microglia, 48 h, read-out: Fibrin IC50
[22] = dose response, fibrin-induced microglia activation, read-out: Fibrin IC50
[23] = primary microglia HTS, 10 μM, LPS-stimulated, cell size >800 μm^2 as marker of activation
[24] = 10 μM, fibrin assay, cell size <150 μm^2 as marker of toxicity
[25] = primary microglia HTS, 10 μM, fibrin-stimulated, cell size >800 μm^2 as marker of activation
[26] = 10 μM, LPS assay, cell size <150 μm^2 as marker of toxicity

CN(Cc1cnc2nc(N)nc(N)c2n1)c1ccc(C(=O)N[C@@H](CCC(=O)O)C(=O)O)cc1 (racemic) [Methotrexate(+/−)]
LPS % inhibition [1, 8]: 0% | Fibrin % cell toxicity (primary rat microglia [2]): 0% | Fibrin % inhibition [3, 9]: 0%

CC1(C)S[C@@H]2[C@H](NC(=O)[C@H](N)c3ccc(O)cc3)C(=O)N2[C@H]1C(=O)O [Amoxicillin]
inhibition at 10 µM [1]: 12% | Quadrant (FIG. 5b) [4]: Q4 | Fibrin % cell toxicity (primary rat microglia [2]; rat): 0% | inhibition at 10 µM [3]: -14%

Nc1nc(Cl)nc2c1ncn2[C@@H]1O[C@H](CO)[C@@H](O)[C@@H]1F [Clofarabine]
LPS % inhibition ([1]; primary HTS, 10 μM, LPS-stimulated primary microglia): −2% and 8% | Quadrant (FIG. 5b) ([4]; primary HTS, 10 μM): Q4 | Fibrin % cell toxicity (primary rat microglia [2]; rat): 1%

CC(=O)O[C@]1(C(C)=O)CC[C@H]2[C@@H]3C=C(Cl)C4=CC(=O)[C@@H]5C[C@@H]5[C@]4(C)[C@H]3CC[C@@]21C [Cyproterone Acetate]
LPS % inhibition [1, 10]: 12% and 3% | Quadrant (FIG. 5b) [4, 11]: Q4 | Fibrin % cell toxicity (primary rat microglia [2]; rat): 1%

C#C[C@]1(O)CC[C@H]2[C@@H]3CCC4=Cc5oncc5C[C@]4(C)[C@H]3CC[C@@]21C [Danazol]
inhibition at 10 µM [1, 12]: 99% | inhibition at 10 µM [1, 13]: 5% | Quadrant (FIG. 5b) [4, 11]: Q4 | Quadrant (FIG. 5b) [4, 14]: Q2 | Fibrin % cell toxicity (primary rat microglia [5]; fibrin assay, dead cells (size <150 μm2), compounds at 10 μM): 1% | Fibrin % cell toxicity (primary rat microglia [5]; [15]): 28% | inhibition at 10 µM [3, 16]: -14% | inhibition at 10 µM [3, 9]: 105% | LPS % cell toxicity (primary rat microglia [6]; [17]): 14% | LPS % cell toxicity (primary rat microglia [7]): 0%

Cn1c(=O)c2c(ncn2CC2OCCO2)n(C)c1=O [Doxofylline]
inhibition at 10 µM [1, 13]: 18% | Quadrant (FIG. 5b) [4, 11]: Q4 | Fibrin % cell toxicity (primary rat microglia [2]; rat): 0% | inhibition at 10 µM [3, 16]: -42%

O=C(O)CN(CCN(CC(=O)O)CC(=O)O)CC(=O)O [Edetic Acid]
Quadrant (FIG. 5b) [4]: Q4 | Fibrin % cell toxicity (primary rat microglia [2]; rat): 0%

C[C@]12CC[C@@H]3c4ccc(O)cc4CC[C@H]3[C@@H]1CCC2=O [Estrone]
inhibition at 10 µM [1, 12]: 106% | inhibition at 10 µM [1, 13]: 16% | Quadrant (FIG. 5b) [4, 11]: Q4 | Quadrant (FIG. 5b) [4, 14]: Q2 | inhibition at 10 µM [3, 16]: 35% | inhibition at 10 µM [3, 9]: 106% | LPS % cell toxicity (primary rat microglia [6]; [17]): 25% | LPS % cell toxicity (primary rat microglia [7]): 0%

C=C1C[C@@H]2[C@H](CC[C@]3(C)C(=O)CC[C@@H]23)[C@@]2(C)C=CC(=O)C=C12 [Exemestane]
inhibition at 10 µM [1, 13]: 21% | LPS % inhibition [1, 10]: 34% | Quadrant (FIG. 5b) [4, 11]: Q4 | Fibrin % cell toxicity (primary rat microglia [2]; rat): 1% | inhibition at 10 µM [3, 16]: 22% | Fibrin % inhibition ([3]; primary microglia HTS, fibrin stimulation, compounds at 10 μM, 10 µM): 31%

O=c1[nH]c(=O)n([C@H]2C[C@H](O)[C@@H](CO)O2)cc1I [Idoxuridine]
Quadrant (FIG. 5b) [4, 14]: Q4 | Fibrin % cell toxicity (primary rat microglia [2]; rat): 1%

CCC(C)n1ncn(-c2ccc(N3CCN(c4ccc(OCC5COC(Cn6cncn6)(c6ccc(Cl)cc6Cl)O5)cc4)CC3)cc2)c1=O (stereo not drawn) [Itraconazole]
Quadrant (FIG. 5b) [4, 14]: Q4 | Fibrin % cell toxicity (primary rat microglia [2]; rat): 1%

CC[C@H](C)C(=O)O[C@H]1C[C@@H](C)C=C2C=C[C@H](C)[C@H](CC[C@@H]3C[C@@H](O)CC(=O)O3)[C@H]21 [Lovastatin]
inhibition at 10 µM ([1]; 48 h): 87% | Quadrant (FIG. 5b) [4]: Q2 | Fibrin % cell toxicity (primary rat microglia [2]; rat): 3% | inhibition at 10 µM [3]: 106%

C#C[C@]1(O)CC[C@H]2[C@@H]3CCC4=CC(=O)CC[C@@H]4[C@H]3CC[C@@]21C [Norethindrone]
LPS % inhibition [1]: 15% | Quadrant (FIG. 5b) [4]: Q4 | Fibrin % cell toxicity (primary rat microglia [2]; rat): 0% | inhibition at 10 µM [3]: 9%

C#C[C@]1(O)CC[C@H]2[C@@H]3CCC4=CC(=O)CC[C@@H]4[C@H]3CC[C@@]21C [Norethisterone]
LPS % inhibition [1]: 1% | Quadrant (FIG. 5b) [4]: Q4 | Fibrin % cell toxicity (primary rat microglia [2]; rat): 1% | Fibrin % inhibition [3]: 18%

CCCCCCCCCCC[C@@H](C[C@@H]1OC(=O)[C@H]1CCCCCC)OC(=O)[C@H](CC(C)C)NC=O [Orlistat]
Quadrant (FIG. 5b) [4, 14]: Q4 | Fibrin % cell toxicity (primary rat microglia [2]; rat): 1% | inhibition at 10 µM [3, 9]: 17%

Clc1ccc(C(Cn2ccnc2)OCc2ccsc2Cl)c(Cl)c1 (stereo not drawn) [Tioconazole]
LPS % inhibition ([1]; 10 µM): 8% | inhibition at 10 µM [1]: 12% | Quadrant (FIG. 5b) [4]: Q4 | Fibrin % cell toxicity (primary rat microglia [2]; rat): 1%

Monensin [reference compound]
LPS_HS ([1]; Hill slope of LPS dose response, Table 7): −0.48 | IC50 ([1]; LPS-induced microglia activation, dose response, read-out: LPS IC50 (uM) (Suppl. Table 7)): 0.2 µM | IC50 [1, 18]: 0.2 µM | IC50 ([1]; Table 3, read-out: LPS IC50 (uM) (Suppl. Table 7)): 0.2 µM | IC50 ([1]; Table 6, read-out: LPS IC50 (uM) (Suppl. Table 7)): 0.2 µM | LPS specificity ([1]; Table 7): 5.4 | IC50 ([1]; Table 7, read-out: LPS_IC50): 0.212 µM | IC50 [1, 19]: 0.2 µM | LPS % inhibition [1, 8]: 117% | Hit [4]: HIT (Hits were defined as molecules that exhibited greater than 50% inhibition of either fibrin or LPS activation) | Quadrant (FIG. 5b) [4, 20]: Q2 | Quadrant (FIG. 5b) ([4]; Table 1, screen at 10 μM): Q2 | Cherry-picked Hit (Suppl. Table 7) ([4]; Table 3): HIT (Hits were defined as molecules that exhibited greater than 50% inhibition of either fibrin or LPS activation) | Quadrant (FIG. 5b) ([4]; Table 3, screen at 10 μM): Q2 | Activity ([4]; Table 7, fib = fibrin, LPS, tox = toxicity): fib/LPS | Cherry-picked Hit (Suppl. Table 7) ([4]; hit classification in microglia HTS): HIT (Hits were defined as molecules that exhibited greater than 50% inhibition of either fibrin or LPS activation) | Cherry-picked Hit (Suppl. Table 7) ([4]; microglia HTS, Table 6): HIT (Hits were defined as molecules that exhibited greater than 50% inhibition of either fibrin or LPS activation) | Quadrant (FIG. 5b) ([4]; microglia HTS, Table 6): Q2 | Quadrant (FIG. 5b) [4, 14]: Q2 | Fibrin % cell toxicity (primary rat microglia [5]; [15]): 3% | IC50 (primary rat microglia [5]; Table 3): > 20 µM | IC50 (primary rat microglia [5]; cFib assay): > 20 µM | IC50 (primary rat microglia [5]; cFib assay, Table 6): > 20 µM | Fibrin Selectivity [3]: 49 | Fibrin Selectivity (LOG10) [3]: 1.69 | fib_HS ([3]; Hill slope of fibrin dose response, Table 7): −3.80 | IC50 [3, 21]: 0.004 µM | IC50 ([3]; Table 3, read-out: Fibrin IC50 (uM) (Suppl. Table 7)): 0.004 µM | IC50 ([3]; Table 6, read-out: Fibrin IC50 (uM) (Suppl. Table 7)): 0.004 µM | fib specificity ([3]; Table 7): 0.2 | IC50 ([3]; Table 7, read-out: fib_IC50): 1.14 µM | IC50 [3, 22]: 0.004 µM | Fibrin Selectivity (LOG10) ([3]; fibrin vs LPS, LOG10, Table 6): 1.69 | Fibrin Selectivity ([3]; fibrin vs LPS, Table 6): 49 | IC50 ([3]; fibrin-induced microglia activation, dose response, read-out: Fibrin IC50 (uM) (Suppl. Table 7)): 0.004 µM | Fibrin % inhibition [3, 9]: 101% | LPS % cell toxicity (primary rat microglia [6]; [17]): 6% | IC50 (primary rat microglia [6]; LPS assay): 2 µM | IC50 (primary rat microglia [6]; LPS assay, Table 6): 2 µM | IC50 (primary rat microglia [6]; Table 3): 2 µM

Nonoxynol-9
LPS % inhibition [1, 8]: 23% | Quadrant (FIG. 5b) [4, 14]: Q4 | Fibrin % cell toxicity (primary rat microglia [5]; [15]): 0% | Fibrin % inhibition [3, 9]: −7% | LPS % cell toxicity (primary rat microglia [6]; [17]): 0%

Polymyxin B Sulfate
LPS % inhibition [1, 8]: 76% | Quadrant (FIG. 5b) [4, 14]: Q1 | Fibrin % cell toxicity (primary rat microglia [5]; [15]): 1% | Fibrin % inhibition [3, 9]: −25% | LPS % cell toxicity (primary rat microglia [6]; [17]): 2%

RKDVY [Thymopentin]
LPS % inhibition [1, 23]: 20% | Quadrant (FIG. 5b) [4, 20]: Q4 | Fibrin % cell toxicity (primary rat microglia [5]; [24]): 1% | Fibrin % inhibition [3, 25]: −20% | LPS % cell toxicity (primary rat microglia [6]; [26]): 0%

Sucralfate
LPS % inhibition [1, 23]: 22% | Quadrant (FIG. 5b) [4, 20]: Q4 | Fibrin % cell toxicity (primary rat microglia [5]; [24]): 1% | Fibrin % inhibition [3, 25]: −35% | LPS % cell toxicity (primary rat microglia [6]; [26]): 0%

Tyloxapol
LPS % inhibition [1, 23]: 17% | Quadrant (FIG. 5b) [4, 20]: Q4 | Fibrin % cell toxicity (primary rat microglia [5]; [24]): 1% | Fibrin % inhibition [3, 25]: −1% | LPS % cell toxicity (primary rat microglia [6]; [26]): 0%

Tyrothricin [reference compound]
IC50 [1, 18]: 0.5 µM | IC50 [1, 19]: 0.5 µM | LPS % inhibition [1, 8]: 102% | Hit [4]: HIT (Hits were defined as molecules that exhibited greater than 50% inhibition of either fibrin or LPS activation) | Quadrant (FIG. 5b) ([4]; Table 1, screen at 10 μM): Q2 | Quadrant (FIG. 5b) [4, 14]: Q2 | Fibrin % cell toxicity (primary rat microglia [5]; [15]): 2% | IC50 [3, 21]: 3 µM | IC50 [3, 22]: 3 µM | Fibrin % inhibition [3, 9]: 89% | LPS % cell toxicity (primary rat microglia [6]; [17]): 2%

Viomycin Sulfate
LPS % inhibition [1, 23]: 19% | Quadrant (FIG. 5b) [4, 20]: Q4 | Fibrin % cell toxicity (primary rat microglia [5]; [24]): 0% | Fibrin % inhibition [3, 25]: −7% | LPS % cell toxicity (primary rat microglia [6]; [26]): 0%

Reference: US20210330611A1, “THERAPY FOR NEUROLOGICAL DISEASES/DISORDERS” (priority 2020, published 2021)
